pIC50: −log10 of the molar value. In brackets after ≈: the same amount, converted by molar mass. Read-outs that look alike come from different tables or passages of the source.
Experiments:
in vitro = in vitro ADME; details: human, plasma
Text: PPB % Free (Human at 1 μm)

[1] = Mitochondrial toxicity (Glu/Gal) assay; type: cell-based
[2] = Chemical stability testing (LCMS); type: physicochemical; details: 48 h, 30 µM
Protocol: • Add 3 μl of a 10 mM DMSO stock solution to 1 ml of the following solvents in a 1.5 ml HPLC vial. • DMSO (reference solution) • H2O/Acetonitril 1/1 (assay solution) • 0.1N HCl/Acetonitril 1/1 (assay solution) • Mix well, […] LCMS • Compare the chromatograms of the two assay solutions with the reference solution and report the additional peaks as degradation peaks

[3] = LM CLint (microsomal stability), mouse; type: in vitro ADME; details: microsomes, 1 μm, read-out: CLint Microsomes, Mouse (m)
Text: (§1) The compounds of the invention/examples may have advantages associated with in vitro potency, kill kinetics (i.e. bactericidal effect) in vitro, PK properties, food effect, safety/toxicity (including liver toxicity, coagulation, 5-LO oxygenase), metabolic stability, Ames II negativity, MNT negativity, aqueous based solubility (and ability to formulate) and/or cardiovascular effect e.g. on animals (e.g. anesthetized guinea pig). Data that is generated/calculated may be obtained using standard methods/assays, for instance that are available in the literature or which may be performed by a supplier (e.g. Microsomal Stability Assay—Cyprotex, Mitochondrial toxicity (Glu/Gal) assay—Cyprotex, as well as literature CYP cocktail inhibition assays). GSH can be measured (reactive metabolites, glucuronidation) to observe if a dihydrodiol is observed by LCMS (fragmentation ions), which would correspond to a dihydroxylation on the core heterocycle.
(§2) CLint Microsomes (μL/Min/Mg) in Dog (d), Human (h), Mouse (m) and Rat (r) (all at 1 μm)

[4] = LM CLint (microsomal stability), human; type: in vitro ADME; details: liver microsomes, read-out: CLint Microsomes, Human (h)
Text: as §1, §2

[5] = system: Mycobacterium tuberculosis strain EH4.0 expressing green-fluorescent protein (GFP); assay: microbe, parasite or virus in culture; type: cell-based; details: Mycobacterium tuberculosis; Test 1 (and/or Test 2); M. tuberculosis
M. tuberculosis H37Rv = M. tuberculosis H37Rv inside macrophages; cited from earlier work

## Cc1cnc2nc(C3CC3)c(C(=O)NCc3ccc(-c4nc5n(n4)CCN(S(=O)(=O)C(F)(F)F)C5)cc3)n2c1 [Compound 42]
In vitro
  fraction unbound at 1 µM: 0.029
[1]; read-out: IC50, gal
  pIC50: < 4.60
[1]; read-out: IC50, glu
  pIC50: < 4.60
[2]
  chemical stability, % by LCMS: 100%
[2]; pH 1.6
  chemical stability, % by LCMS: 100%
[3]
  microsomal CLint at 1 µM: 20.4 µL/min/mg
[4]
  microsomal CLint at 1 µM: 47.1 µL/min/mg

## CCc1nc2ccc(Cl)cn2c1C(=O)NCc1ccc(-c2nc3n(n2)CCN(S(=O)(=O)C(F)(F)F)C3)cc1 [Compound 1]
In vitro
  fraction unbound at 1 µM: 0.00047
[1]; read-out: IC50, gal
  pIC50: < 3.70
[1]; read-out: IC50, glu
  pIC50: < 3.70
[3]
  microsomal CLint at 1 µM: 49.2 µL/min/mg
[4]
  microsomal CLint at 1 µM: 30.3 µL/min/mg
[5]
  pIC50: 8.11

## CCc1nc2ccc(Cl)cn2c1C(=O)NCc1ccc(N2CCC(c3ccc(OC(F)(F)F)cc3)CC2)cc1 [Compound Q203, Q203]
M. tuberculosis H37Rv
  MIC50: 0.28 nM (≈ 0.156 ng/mL)

Source: patent US20240199651A1, “ANTIBACTERIAL COMPOUNDS” (JANSSEN SCIENCES IRELAND UNLIMITED COMPANY, priority 2021, published 2024)
